In US12157749B2, “Borate-based drug and use thereof” (Chengdu Origin Biotechnology Limited Company, priority 2018, dated 2024):
Where “and” joins values, the source holds several entries; their conditions need not be identical. Identical values can stand only once. Entries after “also recorded” stand apart in the source; their conditions may differ. Counter-ions that a name gives are not always drawn. Marks after values point to notes of the source that are not given here.

Assays:
[1] = tested on: transplantation tumor of human multiple myeloma MM.1S; assay: Transplantation tumor model of human multiple myeloma cells MM.1S in CB17-SCID mouse, dose 0.00831 mmol/kg (Activity Experiment Example 2); assay type: in vivo; settings: for tumor weight (g): X ± SD, tumor dissected on day 19; for tumor weight (g) / tumor inhibition rate (%): five doses; for Relative tumor proliferation rate T/C(%): 0.00831 mmol/kg oral gavage twice a week; for tumor inhibition rate (%): from tumor weight
Procedure: The model used in this experiment was the transplantation tumor model of human multiple myeloma cells line MM.1 S in CB17-SCID mouse (purchased from Beijing Weitong Lihua Experimental Animal Technology Co., Ltd.). Cryopreserved MM.1S cells were cultured in vitro by conventionally way after resuscitation. The cells were collected in logarithmic growth phase and diluted with serum-free culture medium or PBS to form a tumor cell suspension with a concentration of 5×10^7/ml. The tumor cell suspensions prepared above were taken with a 1 ml syringe and injected subcutaneously into the left armpit backrest side of the mouse, and 0.2 ml was injected into each inoculation site. About 1 to 2 weeks after the cultured tumor cells were injected into CB17-SCID mouse, the tumors were touched under the armpit. When the tumor volume was more than 100 mm^3, the tumor volume was measured and calculated, and the mice were randomly divided into groups according to the tumor volume. The administration doses of different test samples were equivalent doses on a molar basis with a specific dose of 0.00831 mmol/kg. Administration mode and frequency: The test samples were administered by oral gavage with a volume of 10 ml/kg. The model group was given equal volume of solvent. The test samples were administered twice a week for five times (with administration dose of 0.00831 mmol/kg, i.e., the dose of MLN9708 being 4.30 mg/kg, the dose of the compound 6a being 4.67 mg/kg, and the dose of the compound 6b being 4.53 mg/kg) for a duration of 19 days. The administration was conducted on the 1st, 4th, 8th, 11th and 15th day, and the experiment was finished on the 19th day. The mental state, activity, eating and other general conditions of mice were observed every day, and the weight was measured twice a week. The short diameter (a) and long diameter (b) of each mouse tumor were measured with vernier caliper twice a week, and the tumor volume was calculated according to formula (a^2×b)/2. The relative tumor volume (RTV) was calculated according to the measured tumor volume, RTV=Vt/V0. Wherein, V0 was the tumor volume when random grouping (i.e. d0) and Vt was the tumor volume at each measurement (i.e. dn). According to the following formula, evaluation index of anti-tumor activity, the relative tumor proliferation rate T/C (%), was calculated: Note: TRTV is RTV of treatment group, and CRTV is RTV of model control group. Efficacy evaluation standard is T/C %≤40%, and after statistics procession, p<0.05 is considered significant. On the 19th day, after the tumor was weighted and measured, the mice in each group were killed, and the tumor was dissected and weighed. According to the tumor weight, the tumor inhibition rate (TGI) was calculated, TGI=((average tumor weight of model group−average tumor weight of administration group)/average tumor weight of model group)×100%.

[2] = tested on: transplantation tumor of human multiple myeloma MM.1S; assay: Transplantation tumor model of human multiple myeloma cells MM.1S in CB17-SCID mouse, low dose 0.00554 mmol/kg (Activity Experiment Example 4); assay type: in vivo; settings: for area under the curve of tumor volume vs. time curve, ascending sequence: FIG. 2; for Relative tumor proliferation rate T/C(%): 0.00554 mmol/kg oral gavage twice a week; for tumor inhibition rate (%): from tumor weight at end of experiment
Procedure: The model used in this experiment was the transplantation tumor model of human multiple myeloma cells line MM.1S in CB17-SCID mouse. Cryopreserved MM.1S cells were cultured in vitro conventionally after resuscitation. The cells were collected in logarithmic growth phase and diluted with serum-free culture medium or PBS to form a tumor cell suspension with a concentration of 5×10^7/ml. The tumor cell suspensions prepared above were taken with a 1 ml syringe and injected subcutaneously into the left armpit backrest side of the mouse, and 0.2 ml was injected into each inoculation site. About 1 to 2 weeks after the cultured tumor cells were injected into the CB17-SCID mouse, the tumors were touched under the armpit. When the tumor volume was more than 100 mm^3, the tumor volume was measured and calculated, and the mice were randomly divided into groups according to the tumor volume. The administration doses of different test samples were equivalent doses on a molar basis with a specific dose of 0.00554 mmol/kg. Administration mode and frequency: the test samples were administered by oral gavage with a volume of 10 ml/kg. The model group was given equal volume of solvent. The test samples were administered twice a week for five times with an administration dose of 0.00554 mmol/kg, i.e., the dose of MLN9708 being 2.86 mg/kg, the dose of the compound 6q being 2.77 mg/kg, the dose of the compound 6f being 2.80 mg/kg, and the dose of the compound 6b being 3.02 mg/kg, for a duration of 17 days. The administration was conducted on the 1st, 5th, 8th, 12th and 15th day, and the experiment was finished on the 17th day. The mental state, activity, eating and other general conditions of mice were observed every day, and the weight was measured twice a week. The short diameter (a) and long diameter (b) of each mouse tumor were measured with a vernier caliper twice a week, and the tumor volume was calculated according to formula (a^2×b)/2. The relative tumor volume (RTV) was calculated according to the measured tumor volume, RTV=Vt/V0. Wherein, V0 was the tumor volume when random grouping (i.e. d0) and Vt was the tumor volume at each measurement (i.e. […]). According to the following formula, evaluation index of anti-tumor activity relative to the relative tumor proliferation rate T/C (%) was calculated: Note: TRTV is RTV of treatment group, and CRTV is RTV of model control group. According to “Technical Guidelines for Non-clinical Research of Cytotoxic Antitumor Drugs” issued by State Food and Drug Administration in China, the evaluation standard is T/C %≤40%, and after statistics procession, p<0.05 is considered significant. On the 19th day, after the tumor was weighted and measured, the mice in each group were killed, and the tumor was dissected and weighed. According to the tumor weight, the tumor inhibition rate (TGI) was calculated, TGI=((average tumor weight of model group−average tumor weight of administration group)/average tumor weight of model group)×100%.

[3] = day 19, 0.00831 mmol/kg oral gavage
[4] = X ± SD, tumor dissected at end of experiment, 0.00554 mmol/kg oral gavage, five doses
[5] = 0.00554 mmol/kg oral gavage, five doses

Structure (SMILES)	tumor weight (g) ([1]; 0.00831 mmol/kg oral gavage)	Relative tumor proliferation rate T/C(%) ([1]; day 4)	Relative tumor proliferation rate T/C(%) ([1]; day 8)	Relative tumor proliferation rate T/C(%) ([1]; day 11)	Relative tumor proliferation rate T/C(%) ([1]; day 15)	Relative tumor proliferation rate T/C(%) ([1]; day 19)	tumor inhibition rate (%) [1, 3] [%]	inhibition of tumor growth (in words) ([2]; 0.00554 mmol/kg oral gavage)	inhibitory effect on tumor growth compared with other test samples ([2]; 0.00554 mmol/kg oral gavage)	inhibitory effect sequence on transplantation tumor growth from strong to weak ([2]; 0.00554 mmol/kg oral gavage) [b>6f>6q>MLN9708]	area under the curve of tumor volume vs. time curve, ascending sequence ([2]; 0.00554 mmol/kg oral gavage)	tumor weight (g) [2, 4]	Relative tumor proliferation rate T/C(%) ([2]; day 5)	Relative tumor proliferation rate T/C(%) ([2]; day 8)	Relative tumor proliferation rate T/C(%) ([2]; day 12)	Relative tumor proliferation rate T/C(%) ([2]; day 15)	Relative tumor proliferation rate T/C(%) ([2]; day 17)	tumor inhibition rate (%) [2, 5] [%]	onset time / effective time of controlling tumor growth (in words) ([2]; 0.00554 mmol/kg oral gavage)	further results
CC(C)C[C@H](NC(=O)CNC(=O)c1cc(Br)ccc1Cl)B1OC(=O)C(CC(=O)O)(CC(=O)O)O1 [Compound 6a, (R)-2,2′-(2-(1-(2-(2-chloro-5-bromo-benzoylamino)acetylamino)-3-methylbutyl)-5-oxo-1,3,2-dioxaborolan-4,4-diyl)diacetic acid]	2.471 ± 0.598^★★▴▴ g	87.94%	69.95%	88.41^▴ %	94.56^▴ %	80.45%	31.63	–	–	–	–	–	–	–	–	–	–	–	–	–
CC(C)C[C@H](NC(=O)CNC(=O)c1cc(Br)ccc1F)B1OC(=O)C(CC(=O)O)(CC(=O)O)O1 [Compound 6b, (R)-2,2′-(2-(1-(2-(2-fluoro-5-bromo-benzoylamino)acetylamino)-3-methylbutyl)-5-oxo-1,3,2-dioxaborolan-4,4-diyl)diacetic acid]	0.063 ± 0.072^★★ g	48.84^▴ %	4.3^▴▴ %	1.75^▴▴ %	1.12^▴▴ %	0.5^▴▴ %	98.26	can significantly inhibit tumor growth	significantly stronger inhibitory effect on tumor growth than MLN9708(p<0.01); also recorded: has the fastest effect on tumor growth and has the strongest inhibitory activity	6	compound 6b<compound 6f<compound 6q	0.360 ± 0.415^★★▴▴ g	18	5.86^▴▴ %	9.04%	10.59^▴▴ %	9.06^▴▴ %	87.75	–	inhibition of tumor growth (in words) ([1]; 0.00831 mmol/kg oral gavage): can significantly inhibit tumor growth; inhibitory effect on tumor growth compared with MLN9708 and compound 6a ([1]; 0.00831 mmol/kg oral gavage): significantly stronger inhibitory effect on tumor growth than MLN9708(p<0.01) and the compound 6a(p<0.01); inhibitory effect on tumor growth compared with compound 6c ([1]; same method and procedure, data not shown): significantly stronger inhibitory effect on tumor growth of the transplantation tumor of human multiple myeloma MM.1S in SCID mouse than that of the compound 6c
CC(C)C[C@H](NC(=O)CNC(=O)c1cc(Br)ccc1F)B1OC(=O)C(c2ccccc2)O1 (stereo partly drawn) [Compound 6f, 2-fluoro-5-bromo-N-[2-({(1R)-3-methyl-1-[4-oxo-5-phenyl-1,3,2-dioxaborolan-2-yl]butyl}amino)-2-oxoethyl]benzamide]	–	–	–	–	–	–	–	can also significantly inhibit tumor growth	the inhibitory effect is weaker than that of compound 6b; also recorded: its inhibitory activity is weaker than that the compound of 6b	6	compound 6b<compound 6f<compound 6q	0.741 ± 0.917^★★▴▴ g	–	43.49^▴▴● %	31.17%	30.15^▴▴ %	22.86^▴▴ %	74.82	longer onset time to control tumor growth than that of the compound 6b	–
CC(C)C[C@H](NC(=O)CNC(=O)c1cc(Cl)ccc1F)B1OC(=O)C(CC(=O)O)(CC(=O)O)O1 [Compound 6q, (R)-2,2′-(2-(1-(2-(2-fluoro-5-chloro-benzoylamino)acetylamino)-3-methylbutyl)-5-oxo-1,3,2-dioxaborolan-4,4-diyl)diacetic acid]	–	–	–	–	–	–	–	can also significantly inhibit tumor growth	the inhibitory effect is weaker than that of compound 6b	6	compound 6b<compound 6f<compound 6q	0.945 ± 0.603^★★▴▴● g	–	47.34^▴▴●● %	67.42% and 67.42^▴▴● %	45.35^▴▴ %	29.00% and 29.20^▴▴ %	67.85	the effective time of controlling tumor growth was longer than the 6f group and significantly longer than the 6b group	–
CC(C)C[C@H](NC(=O)CNC(=O)c1cc(Cl)ccc1Cl)B1OC(=O)C(CC(=O)O)(CC(=O)O)O1 [MLN9708, Ixazomib Citrate, reference compound]	1.782 ± 1.361^★★▴▴ g	84.97%	59.75%	51.05%	41.67%	56.1%	50.69	no effect on inhibiting tumor growth	–	6	–	–	90.08	112.42%	137.07%	97.25%	84.29%	−0.48	–	tumor weight [2, 4]: 2.953 ± 0.668 g
